The record followed here is patent US9079864B2, “Modulators of S1P receptors” (Allergan, Inc., priority 2010, dated 2015).

This assay concerns the target T1, human S1P1 receptor (Homo sapiens, UniProt P21453).
T1 construct: expressed in transfected cells; membranes used
Kind of assay: GTP γ35S binding assay for S1P1 activity. In kind it is biochemical. Set-up: % stimulation: reference not given here. To be noted: for % stimulation: S1P1 receptor, agonist-induced; for EC50: membranes of cells stably expressing S1P1 receptor, agonist mode, 0.08 to 5,000 nM. The method, then:
Novel compounds were synthesized and tested for S1P1 activity using the GTP γ^35S binding assay. These compounds may be assessed for their ability to activate or block activation of the human S1P1 receptor in cells stably expressing the S1P1 receptor. GTP γ^35S binding was measured in the medium containing (mM) HEPES 25, pH 7.4, MgCl2 10, NaCl 100, dithiothreitol 0.5, digitonin 0.003%, 0.2 nM GTP γ^35S, and 5 μg membrane protein in a volume of 150 μl. Test compounds were included in the concentration range from 0.08 to 5,000 nM unless indicated otherwise. Membranes were incubated with 100 μM 5′-adenylylimmidodiphosphate for 30 min, and subsequently with 10 μM GDP for 10 min on ice. Drug solutions and membrane were mixed, and then reactions were initiated by adding GTP γ^35S and continued for 30 min at 25° C. Reaction mixtures were filtered over Whatman GF/B filters under vacuum, and washed three times with 3 mL of ice-cold buffer (HEPES 25, pH 7.4, MgCl2 10 and NaCl 100). Filters were dried and mixed with scintillant, and counted for ^35S activity using a β-counter. Agonist-induced GTP γ^35S binding was obtained by subtracting that in the absence of agonist. In case of antagonist assay, the reaction mixture contained 10 nM S1P in the presence of test antagonist at concentrations ranging from 0.08 to 5000 nM.

T1 sequence (P21453 whole entry): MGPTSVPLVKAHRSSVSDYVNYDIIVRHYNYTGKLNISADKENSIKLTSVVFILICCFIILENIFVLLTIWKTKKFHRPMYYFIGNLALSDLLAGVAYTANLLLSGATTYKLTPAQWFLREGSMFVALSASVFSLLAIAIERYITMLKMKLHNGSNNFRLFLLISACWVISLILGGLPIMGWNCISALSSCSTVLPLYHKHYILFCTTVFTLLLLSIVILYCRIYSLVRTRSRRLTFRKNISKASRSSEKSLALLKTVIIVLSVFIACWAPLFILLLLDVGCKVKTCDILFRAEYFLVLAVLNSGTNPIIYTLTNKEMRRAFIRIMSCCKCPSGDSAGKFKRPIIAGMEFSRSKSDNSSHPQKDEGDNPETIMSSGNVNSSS

What is called EC50 is the midpoint of the concentration-response curve. Regarding `CC(C)Oc1ccc(C#Cc2ccc(Cn3ccnc3)cc2)cc1C#N` [Compound 1, 5-{[4-(1H-imidazol-1-ylmethyl)phenyl]ethynyl}-2-isopropoxybenzonitrile], the % stimulation came out at 67% and the midpoint of the response, the EC50, lay at 6.3 nM.
Molecule `CC(C)Oc1ccc(C#Cc2ccc(Cn3ccnc3)cc2)cc1Cl` [Compound 3, 1-{4-[(3-chloro-4-isopropoxyphenyl)ethynyl]-benzyl}-1H-imidazole] displayed a % stimulation of 81% and an EC50 of 14.7 nM.
In the same order, the values of `CC(C)Oc1ccc(C#Cc2ccc(Cn3ccnc3)cc2Cl)cc1C#N` [Compound 5, 5-{[2-chloro-4-(1H-imidazol-1-ylmethyl)phenyl]ethynyl}-2-isopropoxybenzonitrile] are 108% and 7.52 nM.
For `Cc1cc(Cn2ccnc2)ccc1C#Cc1ccc(OC(C)C)c(C#N)c1` [Compound 4, 5-{[4-(1H-imidazol-1-ylmethyl)-2-methylphenyl]ethynyl}-2-isopropoxybenzonitrile], the % stimulation is 70% and the response was half-maximal at 3.1 nM (EC50).
In the same order, the values of `CC(C)Oc1ccc(C#Cc2ccc(CN3CCCC3)cc2)cc1C#N` [Compound 2, 2-isopropoxy-5-{[4-(pyrrolidin-1-ylmethyl)phenyl]ethynyl}benzonitrile] are 110% and 365 nM.
